{"source": "patent US20110064773A1", "about": "“PHARMACEUTICAL COMPOSITIONS COMPRISING A THYROID HORMON AND THEIR THERAPEUTIC USE” (UNIVERSITE JOSEPH FOURIER, priority 2007, published 2011)", "key": {"[1]": {"tested_on": "nuclear receptors of the thyroid hormones, TRα-1 and TRβ-1", "settings": "literature statements; cited from earlier work"}, "[2]": {"tested_on": "normal rats receiving a high-fat diet", "settings": "daily peritoneal injection, vs untreated rats; cited from earlier work"}, "[3]": {"tested_on": "Wistar rats", "experiment": "Growth rate (body weight) and food intake of Wistar rats", "assay_type": "in vivo, rat", "protocol": "Adult male rat bred in the animal room facilities of Laboratory of Fundamental and Applied Bioenergetics (Wistar strain) or purchased from Charles-River Laboratories, Domaine des oncins, L'ARBRESLE France [(genetically obese normoglycemic (Zucker or Fa/Fa) or diabetic (ZDF)] were caged individually in stainless steel hanging cages and maintained in a 22° C., 50±10% relative humidity and 12 h:12 h light:dark environment. All animals were fed ad libitum with a standard rat chow (Safe A04, Villemoisson, France) and tap water. Body mass and food intake were recorded twice/thrice a week and fresh food was provided at the same time to ensure minimal disturbance to the animals' food behavior.\nEight-week old rats (300 g±10 g) were anesthetized by simultaneous intraperitoneal injection of diazepam 4 mg/kg and ketamine 100 mg/kg. In order to maintain body temperature during the surgery (10 min), animals were placed on a warm blanket. After interscapular shaving, a small incision of 0.5 cm of the skin allows the subcutaneous implantation of a small pellet (containing rT3 or 3′,3-T2) with a 10-gauge precision trochar. The pellets, manufactured by Innovative Research of America (Sarasota, Fla., USA) are constituted of a biodegradable matrix that effectively and continuously release the active product in the animal.\n[…] (reverseT3) or 3-3′ diiodothyronine (3-3′ T2) were used at different doses (5, 0.5, or 0.1 mg/pellet) were implanted in order to provide a continuous and constant drug delivery over 60 days (which represents 25 μg, 2.5 μg or 0.5 μg/day/100 g BW).\nWistar rats were treated with rT3 hormone by a daily intraperitoneal injection (IP) (25 μg/100 g BW), a daily sub-cutaneous injection (SC) (25 μg/100 g BW), or a per os administration included in the rat food (25 μg/100 g BW). The continuous and constant administration was performed by using a pellet (25 μg/100 g BW).\nHowever the role of the administration site was further investigated by comparing continuous administration of rT3 by osmotic pump implanted either subcutaneously or intraperitonally with the reference treatment administered by sub-cutaneous pellets. Wistar rats were treated for 21 days with placebo, sub-cutaneous pellet or sub-cutaneous or intraperitoneal osmotic pumps. rT3 was administered continuously (2.5 μg/100 g).\nWistar rats were treated by a continuous and constant administration of low doses of rT3 by 3 different methods of administration: • a sub-cutaneous pellet, • an osmotic pump placed under the skin, and • an osmotic pump placed in the peritoneal cavity."}, "[4]": {"tested_on": "Wistar rats", "experiment": "Body composition (adipose tissues, skeletal muscles, brown adipose tissue) of Wistar rats", "assay_type": "in vivo, rat", "settings": "three weeks, vs placebo", "description": "(§1) At the end of the experimental period, animals were sacrificed by decapitation, in order to avoid the well-known effects of general anesthetics on mitochondrial metabolism. Blood samples were immediately collected and plasma was frozen for subsequent determination of serum metabolites and hormones. Liver, muscles and fat depots were quickly excised and weighed. Liver median lobe was rapidly freeze-clamped. Muscles (plantaris, soleus and gastrocnemius) were frozen in isopentane precooled in liquid nitrogen. Mesenteric fat consisted of adipose tissue surrounding the gastro-intestinal tract from the gastro-oesophageal sphincter to the end of the rectum with special care taken in distinguishing and removing the pancreas. Retroperitoneal fat pad was taken as the distinct depot behind each kidney along the lumbar muscles. Epididymal fat consisted of adipose tissue on top of the epididymis. For subcutaneous depot measurement, a rectangular piece of skin was taken on the right side of each animal from the median line of the abdomen between the spine and the right hip to the first rib. Interscapular brown adipose tissue was removed and dissected free from adjacent muscles and white adipose tissue. The heart ventricles, the right kidney and the spleen were also excised, weighed and frozen."}, "[5]": {"tested_on": "Wistar rats", "experiment": "Indirect calorimetry (energy expenditure, respiratory quotient) of Wistar rats", "assay_type": "in vivo, rat", "settings": "25 μg/100 g BW pellet, vs placebo", "description": "Energy expenditure as well as the nature of substrate oxidized (carbohydrates or lipids) were investigated by indirect calorimetry. This principle is based on the determinations of CO2 release (VCO2) and O2 consumption (VO2) by each animal. It assumes that O2 is entirely involved in substrate oxidation in the respiratory chain (leading to water production) while CO2 release is related to substrate decarboxylation (in the Krebs' cycle). These measurements allow assessing energy expenditure (EE) and respiratory quotient ([…], RQ). EE represent the absolute energy dissipation during rest and activity. RQ is a relative measurement indicating the ratio of carbohydrate versus lipid involved in oxidative pathway. A ratio of 1.0 indicates exclusive carbohydrate oxidation while a ratio of 0.7 indicates exclusive lipid oxidation. Each value between these two extreme values indicates the relative proportion of each substrate (of note protein oxidation was not evaluated). As an example, RQ approaches 0.7 during fasting, indicating lipid oxidation, conversely after feeding RQ increases close to 1 indicating carbohydrate oxidation resulting from food intake and blood insulin rise. Likewise, animals fed high-carbohydrate diets have higher RQs than those fed high-fat diets.\nThe indirect calorimetry system (Panlab, Barcelona, Spain) consists of cages, pumps, flow controllers, valves, and analyzers. It is computer-controlled in order to sequentially measure O2 and CO2 concentrations as well as air flow in four separate cages allowing four simultaneous determinations. Rats are isolated in one of the four metabolic chambers, and room air is used as a reference to monitor ambient O2 and CO2 concentrations periodically.\nAt predefined intervals, the computer sends a signal to store differential CO2 and O2 concentrations, flow rate, allowing computing VCO2, VO2, RQ, and EE (Weir equation) with data acquisition hardware (Metabolism, Panlab, Barcelona, Spain)."}, "[6]": {"tested_on": "muscle mitochondria", "experiment": "Rate of muscle mitochondrial oxygen consumption (JO2) of treated Wistar rats", "assay_type": "in vivo, rat", "settings": "250 μg/kg BW/day, vs placebo", "protocol": "(§2) The major part of the liver and the red part of each quadriceps were rinsed, and chopped into isolation medium (250 mM sucrose, 20 mM Tris-HCl and 1 mM EGTA-Tris, pH 7.4). Nuclei and cell debris were removed by centrifugation at 800 g for 10 min. Mitochondria were then isolated from the supernatant by spinning twice at 8,000 g for 10 minutes. The mitochondrial pellet was resuspended in 0.5 ml of isolation buffer and kept on ice. Mitochondrial protein was measured by the bicinchoninic acid method (Pierce, Rockford, Ill.). The final mitochondrial suspensions were maintained on ice and were used for measurements of oxygen consumption rate.\n(§3) The rate of mitochondrial oxygen consumption (JO2) was measured at 30° C. in an incubation chamber with a Clark-type O2 electrode filled with 2 ml of incubation medium (125 mM KCl, 10 mM Pi-Tris, 20 mM Tris-HCl, 0.1 mM EGTA, pH 7.2). All measurements were performed using mitochondria (1.0 or 0.2 mg mitochondrial protein/ml for liver and skeletal muscle) incubated either with various substrates: glutamate/malate (5 mM/2.5 mM) and succinate (5 mM), alone or in combination, palmitoyl carnitine (55 μM) and octanoyl carnitine (100 μM). For each substrate, JO2 was recorded in the presence of the substrate alone (State 2) and following the addition of 1 mM ADP (state 3). Oligomycin (1.25 μg/mg protein) was added to the mitochondrial suspension to determine the non-phosphorylating respiratory rate (state 4). The incubation medium was constantly stirred with a built-in electromagnetic stirrer and bar flea. The efficiency of the mitochondrial oxidative phosphorylation was assessed by the state 3/state 4 ratio which measures the degree of control imposed on oxidation by phosphorylation (respiratory control ratio, RCR)."}, "[7]": {"tested_on": "liver mitochondria", "experiment": "Rate of liver mitochondrial oxygen consumption (JO2) of treated Wistar rats", "assay_type": "in vivo, rat", "settings": "high dose 250 μg/kg BW/day, various substrates, vs placebo", "protocol": "as §2, §3"}, "[8]": {"tested_on": "Wistar rats", "experiment": "Plasma concentrations of glucose, triglycerides, cholesterol, FFA and HDL in Wistar rats", "assay_type": "in vivo, rat", "settings": "day of sacrifice, vs placebo", "description": "These measurements were done on venous blood of the rats the day of the sacrifice.\nas §1\nGlucose and 3-hydroxybutyrate (3-HB) were measured enzymatically and non esterified fatty acid (NEFA) by colorimetric assay (Wako Chemicals).\nTriglycerides and cholesterol were measured by classical routine automate apparatus."}, "[9]": {"settings": "high dose 25 μg/100 g BW pellet"}, "[10]": {"settings": "Wistar rats, high dose 250 μg/kg BW/day"}}, "data": [{"compound": "N[C@@H](Cc1cc(I)c(Oc2ccc(O)c(I)c2)c(I)c1)C(=O)O", "note": "[T3]", "values": [{"measurement": "Binding to the nuclear (TH) receptors", "setting": "[1]", "result": "binds very efficiently"}]}, {"compound": "NC(Cc1cc(I)c(Oc2ccc(O)cc2)c(I)c1)C(=O)O", "note": "(centres unmarked) [3,5-T2]", "values": [{"measurement": "Fat deposit", "setting": "[2]", "result": "less fat deposit"}, {"measurement": "Weight gain", "setting": "[2]", "result": "gained less weight"}]}, {"compound": "N[C@@H](Cc1ccc(Oc2ccc(O)c(I)c2)c(I)c1)C(=O)O", "note": "[3,3′-T2, 3′,3-diiodothyronine]", "values": [{"measurement": "Food intake immediately after the pellet", "setting": "[3]; 25 μg/100 g BW pellet, from day 4 until day 7", "result": "decrease"}, {"measurement": "Food intake (appetite)", "setting": "[3]; high dose 25 μg/100 g BW pellet, 21 days, vs placebo", "result": "higher value as compared to those of placebo animals"}, {"measurement": "Growth rate (body weight)", "setting": "[3]; high dose 25 μg/100 g BW, subcutaneous pellet, 21 days, vs placebo", "result": "did not show any weight gain"}, {"measurement": "Fat mass", "setting": "[4]; 250 μg/kg BW pellet", "result": "significantly decreased"}, {"measurement": "Brown adipose tissue mass", "setting": "[4]; [9]", "result": "significantly increased"}, {"measurement": "Muscle mass (lean body mass)", "setting": "[4]; [9]", "result": "not affected"}, {"measurement": "Respiratory quotient (RQ) during the day (diurnal period)", "setting": "[5]", "result": "lower than that of placebo"}, {"measurement": "Respiratory quotient (RQ) during the night", "setting": "[5]", "result": "almost the same as those described for rT3"}, {"measurement": "Muscle mitochondrial respiration, non-phosphorylating (state 4)", "setting": "[6]", "result": "failed to substantially affect"}, {"measurement": "Muscle mitochondrial respiration, phosphorylating (state 3)", "setting": "[6]", "result": "failed to substantially affect"}, {"measurement": "Liver mitochondrial respiratory rate, non-phosphorylating (state 4, oligomycin)", "setting": "[7]", "result": "much higher as compared to placebo"}, {"measurement": "Liver mitochondrial respiratory rate, phosphorylating (state 3, ADP)", "setting": "[7]", "result": "very significant increased respiratory rate"}, {"measurement": "Cholesterol plasmatic concentration", "setting": "[8]; Wistar rats, 250 μg/kg BW/day", "result": "significantly lower"}, {"measurement": "Plasma free fatty acids (FFA)", "setting": "[8]; [10]", "result": "higher"}, {"measurement": "Triglycerides plasmatic concentration", "setting": "[8]; [10]", "result": "significantly lower"}, {"measurement": "Fasting glucose plasmatic concentration", "setting": "[8]; normal (non diabetic) Wistar rats, 250 μg/kg BW/day", "result": "slightly increased"}]}, {"compound": "N[C@@H](Cc1cc(I)c(Oc2cc(I)c(O)c(I)c2)c(I)c1)C(=O)O", "note": "[T4, thyroxine]", "values": [{"measurement": "Binding to the nuclear (TH) receptors", "setting": "[1]", "result": "binds less efficiently"}]}]}
